Assay results published in US11951108B2, “Combination therapy for treating cancer” (Epizyme, Inc., priority 2016, dated 2024).
Like-named read-outs stand apart in the source and are kept apart here.

Key:
OV-90 [1] = system: OV-90
DU4475 [2] = system: DU4475
SUM52PE = assay: In vitro combination study, breast cancer cell line SUM52PE; conditions: ER/PR −/−, HER2 −, 7 day pre-treatment + 6 day co-treatment
COV434 = conditions: 4+3 model
BT-20 = assay: In vitro combination study, breast cancer cell line BT-20; conditions: ER/PR −/−, HER2 −, 7 day pre-treatment + 6 day co-treatment
JH)S-4 = assay: In vitro combination study, ovarian cancer cell line JH)S-4; conditions: 4+3 model
COV644* = assay: In vitro combination study, ovarian cancer cell line COV644; conditions: COV644*; 7+3 model
COV504 = conditions: COV504; 4+3 model
TOV112D = assay: In vitro combination study, ovarian cancer cell line TOV112D; conditions: 4+3 model
KURAMOCHI = assay: In vitro combination study, ovarian cancer cell line KURAMOCHI; conditions: KURAMOCHI; 4+3 model
OVISE = assay: In vitro combination study, ovarian cancer cell line OVISE; conditions: OVISE; 4+3 model
DU4475 [3] = assay: In vitro combination study, breast cancer cell line DU4475; conditions: ER/PR −/−, HER2 −, 7 day pre-treatment + 6 day co-treatment
SKOV3 [4] = assay: In vitro combination study, ovarian cancer cell line SKOV3; conditions: 4+3 model
HCC1419 = assay: In vitro combination study, breast cancer cell line HCC1419; conditions: ER/PR −/−, HER2 +, 7 day pre-treatment + 6 day co-treatment
A2780 = assay: In vitro combination study, ovarian cancer cell line A2780; conditions: A2780; 4+3 model
MDA-MB-231 = assay: In vitro combination study, breast cancer cell line MDA-MB-231; conditions: ER/PR −/−, HER2 −, 7 day pre-treatment + 6 day co-treatment
OVMANA [5] = system: OVMANA
ES-2 = assay: In vitro combination study, ovarian cancer cell line ES-2; conditions: 4+3 model
SKOV3 [6] = system: SKOV3
MDA-MB-175VII = assay: In vitro combination study, breast cancer cell line MDA-MB-175VII; conditions: ER/PR +/+, HER2 +, 7 day pre-treatment + 6 day co-treatment
MDA-MB-453 = assay: In vitro combination study, breast cancer cell line MDA-MB-453; type: cell-based; conditions: ER/PR −/−, HER2 −, 7 day pre-treatment + 6 day co-treatment
HCC1143 [7] = system: HCC1143
SUM159PT [8] = system: SUM159PT
BT549 = assay: In vitro combination study, breast cancer cell line BT549; conditions: ER/PR −/−, HER2 −, 7 day pre-treatment + 6 day co-treatment
SUM159PT [9] = assay: In vitro combination study, breast cancer cell line SUM159PT; conditions: ER/PR −/−, HER2 −, 7 day pre-treatment + 6 day co-treatment
TOV21G = assay: In vitro combination study, ovarian cancer cell line TOV21G; type: cell-based; conditions: 4+3 model
OV-90 [10] = assay: In vitro combination study, ovarian cancer cell line OV-90; conditions: OV-90; 4+3 model
HCC1143 [11] = assay: In vitro combination study, breast cancer cell line HCC1143; conditions: ER/PR −/−, HER2 −, 7 day pre-treatment + 6 day co-treatment
CAOV-3 = assay: In vitro combination study, ovarian cancer cell line CAOV-3; type: cell-based; conditions: 4+3 model
OVMANA [12] = assay: In vitro combination study, ovarian cancer cell line OVMANA; conditions: OVMANA; 4+3 model
COV362 = assay: In vitro combination study, ovarian cancer cell line COV362; conditions: COV362; 4+3 model

Nc1ncn([C@@H]2O[C@H](CO)[C@@H](O)[C@H]2O)c(=O)n1 [Azacitidine]
Synergy or antagonism of second agent with tazemetostat (IC50 shift of second agent) (OV-90 [1]): C (key: B: Synergy > 4× IC50 shift; Synergy > 2× IC50 shift; No Effect; Antagonism; X: Not Tested) | Synergy or antagonism of second agent with tazemetostat (IC50 shift of second agent) (DU4475 [2]): C (key: B: Synergy > 4× IC50 shift; Synergy > 2× IC50 shift; No Effect; Antagonism; X: Not Tested) | Synergy or antagonism of second agent with tazemetostat (IC50 shift of second agent) (MDA-MB-468): C (key: B: Synergy > 4× IC50 shift; Synergy > 2× IC50 shift; No Effect; Antagonism; X: Not Tested) | Synergy or antagonism of second agent with tazemetostat (IC50 shift of second agent) (SUM52PE): C (Synergy > 2× IC50 shift) | Synergy or antagonism of second agent with tazemetostat (IC50 shift of second agent) (HCC38): C (key: B: Synergy > 4× IC50 shift; Synergy > 2× IC50 shift; No Effect; Antagonism; X: Not Tested)

Nc1cc(C(F)(F)F)c(-c2cc(N3CCOCC3)nc(N3CCOCC3)n2)cn1 [BKM120]
Synergy or antagonism of second agent with tazemetostat (IC50 shift of second agent) (COV434): C (Synergy > 2× IC50 shift) | Synergy or antagonism of second agent with tazemetostat (IC50 shift of second agent) (BT-20): C (Synergy > 2× IC50 shift) | Synergy or antagonism of second agent with tazemetostat (IC50 shift of second agent) (JH)S-4): C (Synergy > 2× IC50 shift) | Synergy or antagonism of second agent with tazemetostat (IC50 shift of second agent) (COV644*): C (Synergy > 2× IC50 shift) | Synergy or antagonism of second agent with tazemetostat (IC50 shift of second agent) (COV504): C (Synergy > 2× IC50 shift) | Synergy or antagonism of second agent with tazemetostat (IC50 shift of second agent) (TOV112D): C (Synergy > 2× IC50 shift) | Synergy or antagonism of second agent with tazemetostat (IC50 shift of second agent) (KURAMOCHI): C (Synergy > 2× IC50 shift) | Synergy or antagonism of second agent with tazemetostat (IC50 shift of second agent) (OVISE): C (Synergy > 2× IC50 shift) | Synergy or antagonism of second agent with tazemetostat (IC50 shift of second agent) (DU4475 [3]): A (Antagonism) | Synergy or antagonism of second agent with tazemetostat (IC50 shift of second agent) (SKOV3 [4]): C (Synergy > 2× IC50 shift) | Synergy or antagonism of second agent with tazemetostat (IC50 shift of second agent) (HCC1419): C (Synergy > 2× IC50 shift) | Synergy or antagonism of second agent with tazemetostat (IC50 shift of second agent) (A2780): C (Synergy > 2× IC50 shift)

Cc1nc(Nc2ncc(C(=O)Nc3c(C)cccc3Cl)s2)cc(N2CCN(CCO)CC2)n1 [Dasatinib]
Synergy or antagonism of second agent with tazemetostat (IC50 shift of second agent) (HCC1569): C (key: B: Synergy > 4× IC50 shift; Synergy > 2× IC50 shift; No Effect; Antagonism; X: Not Tested) | Synergy or antagonism of second agent with tazemetostat (IC50 shift of second agent) (MDA-MB-231): C (Synergy > 2× IC50 shift) | Synergy or antagonism of second agent with tazemetostat (IC50 shift of second agent) (SUM52PE): B (Synergy > 4× IC50 shift)

COc1cccc2c1C(=O)c1c(O)c3c(c(O)c1C2=O)C[C@@](O)(C(=O)CO)C[C@@H]3O[C@H]1C[C@H](N)[C@H](O)[C@H](C)O1 [Doxorubicin]
Synergy or antagonism of second agent with tazemetostat (IC50 shift of second agent) (OVMANA [5]): C (key: B: Synergy > 4× IC50 shift; Synergy > 2× IC50 shift; No Effect; Antagonism; X: Not Tested) | Synergy or antagonism of second agent with tazemetostat (IC50 shift of second agent) (COV644*): C (Synergy > 2× IC50 shift) | Synergy or antagonism of second agent with tazemetostat (IC50 shift of second agent) (RMUGS*): B (key: B: Synergy > 4× IC50 shift; Synergy > 2× IC50 shift; No Effect; Antagonism; X: Not Tested) | Synergy or antagonism of second agent with tazemetostat (IC50 shift of second agent) (ES-2): C (Synergy > 2× IC50 shift) | Synergy or antagonism of second agent with tazemetostat (IC50 shift of second agent) (SKOV3 [6]): B (key: B: Synergy > 4× IC50 shift; Synergy > 2× IC50 shift; No Effect; Antagonism; X: Not Tested)

Cc1cc(Nc2cc(N3CCN(C)CC3)nc(/C=C/c3ccccc3)n2)n[nH]1 [ENMD-2076]
Synergy or antagonism of second agent with tazemetostat (IC50 shift of second agent) (MDA-MB-175VII): C (Synergy > 2× IC50 shift) | Synergy or antagonism of second agent with tazemetostat (IC50 shift of second agent) (MDA-MB-453): A (Antagonism) | Synergy or antagonism of second agent with tazemetostat (IC50 shift of second agent) (SUM52PE): C (Synergy > 2× IC50 shift)

COc1cc([C@@H]2c3cc4c(cc3[C@@H](O[C@@H]3O[C@@H]5CO[C@@H](C)O[C@H]5[C@H](O)[C@H]3O)[C@H]3COC(=O)[C@H]23)OCO4)cc(OC)c1O [Etoposide]
Synergy or antagonism of second agent with tazemetostat (IC50 shift of second agent) (HCC1143 [7]): C (key: B: Synergy > 4× IC50 shift; Synergy > 2× IC50 shift; No Effect; Antagonism; X: Not Tested) | Synergy or antagonism of second agent with tazemetostat (IC50 shift of second agent) (SUM159PT [8]): C (key: B: Synergy > 4× IC50 shift; Synergy > 2× IC50 shift; No Effect; Antagonism; X: Not Tested)

CO[C@H]1C[C@@H]2CC[C@@H](C)[C@@](O)(O2)C(=O)C(=O)N2CCCC[C@H]2C(=O)O[C@H]([C@H](C)C[C@@H]2CC[C@@H](OCCO)[C@H](OC)C2)CC(=O)[C@H](C)/C=C(\C)[C@@H](O)[C@@H](OC)C(=O)[C@H](C)C[C@H](C)/C=C/C=C/C=C/1C [Everolimus]
Synergy or antagonism of second agent with tazemetostat (IC50 shift of second agent) (MDA-MB-175VII): C (Synergy > 2× IC50 shift) | Synergy or antagonism of second agent with tazemetostat (IC50 shift of second agent) (BT549): A (Antagonism) | Synergy or antagonism of second agent with tazemetostat (IC50 shift of second agent) (SUM159PT [9]): C (Synergy > 2× IC50 shift) | Synergy or antagonism of second agent with tazemetostat (IC50 shift of second agent) (HCC1419): C (Synergy > 2× IC50 shift)

Cc1sc2c(c1C)C(c1ccc(Cl)cc1)=N[C@@H](CC(=O)OC(C)(C)C)c1nnc(C)n1-2 [JQ1]
Synergy or antagonism of second agent with tazemetostat (IC50 shift of second agent) (TOV21G): C (Synergy > 2× IC50 shift) | Synergy or antagonism of second agent with tazemetostat (IC50 shift of second agent) (COV504): C (Synergy > 2× IC50 shift) | Synergy or antagonism of second agent with tazemetostat (IC50 shift of second agent) (TOV112D): C (Synergy > 2× IC50 shift) | Synergy or antagonism of second agent with tazemetostat (IC50 shift of second agent) (ES-2): C (Synergy > 2× IC50 shift) | Synergy or antagonism of second agent with tazemetostat (IC50 shift of second agent) (SKOV3 [4]): B (Synergy > 4× IC50 shift) | Synergy or antagonism of second agent with tazemetostat (IC50 shift of second agent) (HCC1419): C (Synergy > 2× IC50 shift) | Synergy or antagonism of second agent with tazemetostat (IC50 shift of second agent) (OV-90 [10]): C (Synergy > 2× IC50 shift) | Synergy or antagonism of second agent with tazemetostat (IC50 shift of second agent) (A2780): B (Synergy > 4× IC50 shift) | Synergy or antagonism of second agent with tazemetostat (IC50 shift of second agent) (HCC1143 [11]): C (Synergy > 2× IC50 shift) | Synergy or antagonism of second agent with tazemetostat (IC50 shift of second agent) (CAOV-3): B (Synergy > 4× IC50 shift)

Nc1ccccc1NC(=O)c1ccc(CNc2nccc(-c3cccnc3)n2)cc1 [Mocetinostat]
Synergy or antagonism of second agent with tazemetostat (IC50 shift of second agent) (COV434): C (Synergy > 2× IC50 shift) | Synergy or antagonism of second agent with tazemetostat (IC50 shift of second agent) (OVMANA [12]): C (Synergy > 2× IC50 shift) | Synergy or antagonism of second agent with tazemetostat (IC50 shift of second agent) (COV362): C (Synergy > 2× IC50 shift) | Synergy or antagonism of second agent with tazemetostat (IC50 shift of second agent) (TOV112D): C (Synergy > 2× IC50 shift) | Synergy or antagonism of second agent with tazemetostat (IC50 shift of second agent) (KURAMOCHI): C (Synergy > 2× IC50 shift) | Synergy or antagonism of second agent with tazemetostat (IC50 shift of second agent) (SKOV3 [4]): B (Synergy > 4× IC50 shift) | Synergy or antagonism of second agent with tazemetostat (IC50 shift of second agent) (OV-90 [10]): C (Synergy > 2× IC50 shift)
